Reference: patent publication EP3720857B1, “2-OXO-5H-CHROMENO[4,3-B]PYRIDINES FOR USE IN THE TREATMENT OF HEPATITIS B” (Galapagos NV, priority 2017, dated 2019)

Key:
[1] = test system: hepatitis virus B (HBV) infection; assay: iCell hepatocytes assay, delayed assay (compounds added three days after HBV infection); type: cell-based; conditions: for EC50: Hepatitis B virus, Hepatocyte, HBs ELISA
Procedure: (§1) The principle of the iCell hepatocyte 2.0 96 well assay is to evaluate the inhibitory effect of a test compound on hepatitis virus B (HBV) infection. In this assays the HBV core antigen (HBcAg) and/or extracellular antigen (HBeAg) and/or surface antigen (HBsAg) are used as a marker for HBV infection. Nuclei count may be used as an indication for compound toxicity.
(§2) In the standard assay set-up HBV infection and compound addition are performed on the same day, in the delayed assay the compounds are added three days after HBV infection. iCell hepatocytes 2.0 are human hepatocytes derived from induced pluripotent stem cells (iPSc) purchased from Cellular Dynamics international (CDI, R1027).
(§3) At day 0, iCell hepatocytes 2.0 (CDI, R1027) are thawed and seeded in collagen I coated 96well plates at 112 000c/well (100µL) in plating medium (RPMI supplemented with B27 supplement, 20 ng/mL recombinant human oncostatin M (OSM), 25µg/mL gentamicin, 0.1µM Dexamethasone and iCell medium supplement provided by CDI). Plates are incubated at 37°C, 5% CO2 and daily refreshed with plating medium for the following four days.
(§4) On day 5 and 6, plates are refreshed with 100µL maintenance medium (RPMI supplemented with B27 supplement, 25µg/mL gentamicin, 0.1µM Dexamethasone, and iCell medium supplement provided by CDI) and incubated at 37°C, 5% CO2 until the following day.
On day 7 (day of infection), the maintenance medium is removed from the assay plates and cells are infected with 50 µL of HBV mix (HBV virus, 4% PEG, 0% or 2% DMSO in maintenance medium). The assay plates were incubated overnight at 37°C, 5% CO2.
At day 1 post infection (day8), 50µL of HBV mix is removed from the assay plates and refreshed with 100 µL of maintenance medium. The assay plates are incubated at 37°C, 5% CO2 for three days.
At day 4 post infection (day 11) and day 7 post infection (day14), the supernatant is removed and 100 µL of compound series diluted 1/500 in maintenance medium is added to the assay plates (8 point serial dilution using 1/3 dilution steps in 100% DMSO or 8 point serial dilution using ¼ dilution steps, normalized for 0.2% DMSO. The assay plates were incubated at 37°C, 5% CO2 for three days.
At day 10 post infection (day 17), 100µL of supernatant is harvested and frozen to -20°C. The cells are fixed with 50 µL of 3.7% formaldehyde and incubated for 30 min at room temperature. After fixation, cells are washed four times with phosphate buffer saline (PBS) with the plate washer (Select 405, microplate washer, Biotek) and subjected to HBc staining. harvested supernatant is used for HBe and/or HBs ELISA.
(§5) The assay plates are blocked with blocking buffer (2% FBS, 3% BSA, 0.2% TritonX100 in PBS) for 1 h at room temperature.
(§6) After blocking, the assay plates are tapped manually and incubated with 50 µL diluted primary antibody (1/700 Rabbit-anti-HBc Ag, Dako, B0586 or 1/350 Rabbit-anti-HBc Ag, Invitrogen, PA516368) in blocking buffer and incubated for 90 min at room temperature.
(§7) After 4 washes of PBST (1XPBS + 0.05% Tween) with the plate washer, the assay plates are incubated with 100 µL of secondary antibody (Donkey-anti-rabbit Alexa 488, Lifetechnologies, A21206) 1/500 diluted in blocking buffer and incubated for 60 min at room temperature in the dark, then washed 4 times with PBST on the plate washer and incubated with 100µL of DAPI (Sigma D9542, stock 5mg/mL) 1/10000 diluted in PBS for 15-30 min at room temperature in the dark.
Finally, the assay plates are read out on a InCell Analyzer 2200 (GE Healthcare). […]
After blocking, 30 µL of sample and HBe Ag standard (recombinant hepatitis B virus E antigen protein, 4mg/mL, Abcam, ab91273) are added to the plate. The HBe Ag standard is 1/3 diluted in blocking buffer starting from 1.25µg/mL. A vehicle control is also included. The plate is incubated for 30 min at room temperature.
After sample incubation, the plates are washed 4 times with PBST on a platewasher followed by 2 washed of PBS. […]

[2] = test system: hepatitis virus B (HBV) infection; assay: iCell hepatocytes assay, standard assay (HBc staining, HBe ELISA, HBs ELISA); type: cell-based; conditions: for EC50: Hepatitis B virus, Hepatocyte
Procedure: as §1, §2, §3, §4
On day 7 (day of infection) the supernatant is removed from the assay plates and 25 µL of 1/250 diluted compound in maintenance medium and 25 µL of HBV mix (HBV virus, 8% PEG, 0% or 4% DMSO in maintenance medium) are added to the assay plates. Compounds series are either prepared manually as a 6 point serial dilution using 1/5 dilution steps in 100% DMSO or as an 8 point serial dilution using 1/3 dilution steps in 100% DMSO or as an 8 point serial dilution using ¼ dilution steps, normalized for 0.2% DMSO. The assay plates were incubated overnight at 37°C, 5% CO2.
On day 1 post infection (day 8) 50 µL of HBV/cpd mix is removed from the assay plates and refreshed with 100 µL of compound series diluted 1/500 in maintenance medium. The assay plates are incubated at 37°C, 5% CO2 and refreshed with compound series diluted 1/500 in maintenance medium every other day (at day 3 and day 5 post infection) or after three days of incubation (at day 4 post infection).
At day 7 post infection (day 14), 100µL of supernatant is harvested and frozen at -20°C. The cells were fixed with 50 µL of 3.7% formaldehyde and incubated for 30 min at room temperature. After fixation, cells are washed four times with phosphate buffer saline (PBS) with the plate washer (Select 405, microplate washer, Biotek) and subjected to HBc staining. The harvested supernatant is used for HBe and/or HBs ELISA.
as §5, §6, §7
Finally, the assay plates are read out on a InCell Analyzer 2200 (GE Healthcare).
A white lumitrac 600 384 well plate iss coated with 40µL of capture antibody (monoclonal Mouse-anti-HBe Ag, Fitzgerald, 10-H10) diluted 1/2000 in coating buffer (0.1M sodium carbonate pH 9.5) and incubated overnight at 4°C. […]

SMILES	Delayed assay HBs ELISA % inhibition [1]	EC50 [1] [nM]	Standard assay HBs ELISA % inhibition [2]	EC50 [2] [nM]
COCCCOc1cc2c(cc1F)-c1c(cc(C(=O)O)c(=O)n1C1CC1)C(C(C)C)O2 (stereo not drawn) [Compound 1, 1-cyclopropyl-9-fluoro-5-isopropyl-8-(3-methoxypropoxy)-2-oxo-5H-chromeno[4,3-b]pyridine-3-carboxylic acid]	++ (50-75%)	0.001 to 20	++ (50-75%)	0.001 to 20
COCCCOc1cc2c(cc1F)-c1c(cc(C(=O)O)c(=O)n1C1CC1)[C@H](C(C)C)O2 [Compound 44, (5S)-1-cyclopropyl-9-fluoro-5-isopropyl-8-(3-methoxypropoxy)-2-oxo-5H-chromeno[4,3-b]pyridine-3-carboxylic acid]	++ (50-75%)	> 50	++ (50-75%)	22 to 50
CCC1Oc2cc(OCCCOC)c(F)cc2-c2c1cc(C(=O)O)c(=O)n2C1CC1 (stereo not drawn) [Compound 16, 1-cyclopropyl-5-ethyl-9-fluoro-8-(3-methoxypropoxy) -2-oxo-5H-chromeno[4,3-b]pyridine-3-carboxylic acid]	++ (50-75%)	22 to 50	++ (50-75%)	22 to 50
COCCCOc1cc2c(cc1Cl)-c1c(cc(C(=O)O)c(=O)n1C1CC1)CO2 [Compound 6, 9-chloro-1-cyclopropyl-8-(3-methoxypropoxy) -2-oxo-5H-chromeno[4,3-b]pyridine-3-carboxylic acid]	++ (50-75%)	22 to 50	+++ (75-100%)	0.001 to 20
COCCCOc1cc2c(cc1Cl)-c1c(cc(C(=O)O)c(=O)n1C1CC1)[C@H](C1(C)COC1)O2 [Compound 46, (5R)-9-chloro-1-cyclopropyl-8-(3-methoxypropoxy)-5-(3-methyloxetan-3-yl)-2-oxo-5H-chromeno[4,3-b]pyridine-3-carboxylic acid]	++ (50-75%)	0.001 to 20	+++ (75-100%)	0.001 to 20
COCCCOc1cc2c(cc1Cl)-c1c(cc(C(=O)O)c(=O)n1C1CC1)C(C(C)(C)COC)O2 (stereo not drawn) [Compound 19, 9-chloro-1-cyclopropyl-5-(2-methoxy-1,1-dimethyl-ethyl)-8-(3-methoxypropoxy) -2-oxo-5H-chromeno[4,3-b]pyridine-3-carboxylic acid]	++ (50-75%)	22 to 50	++ (50-75%)	22 to 50
